According to patent US20250085283A1, “METHOD FOR QUANTIFYING NICOTINAMIDE ADENINE DINUCLEOTIDE (NAD+) OR NICOTINAMIDE MONONUCLEOTIDE (NMN), AND KIT AND FILTER PAPER FOR PERFORMING THE METHOD” (Teijin Limited, priority 2022, published 2025):

Experiments:
[1] = Room temperature storage stability of NAD+ and NMN in blood spotted on filter paper (DBS, LC-MS/MS); type: physicochemical, human; conditions: for Storage stability (mean): vs storage 0 days
Protocol: A filter paper, to which blood derived from a test subject is added (i.e., corresponding to a filter paper in Step 1 of the present invention), was searched for the optimal one for quantifying NAD+ and NMN when the filter paper with added blood derived from the test subject is stored at room temperature for a certain period of time.
A part of the blood spotted-filter paper prepared in Example 2 was sealed in a moisture absorption standard pouch (Moisture absorption-kun (registered trademark)/Maruto Sangyo Co., Ltd.) and then stored at room temperature. After storage at room temperature for 2 days, 1 week (7 days), or 2 weeks (15 days), the blood-spotted areas were cut out and collected in a 2 mL microtube. After performing the same treatment as in Example 2, measurement by LC-MS/MS was performed under the same conditions as in Example 2.

[2] = Chilled storage stability of NAD+ and NMN in blood spotted on filter paper (DBS, LC-MS/MS); type: physicochemical, human; conditions: for Storage stability (mean): vs storage 0 days
Protocol: A filter paper, to which blood derived from a test subject is added (i.e., corresponding to a filter paper in Step 1 of the present invention), was searched for the optimal one for quantifying NAD+ and NMN when the filter paper with added blood derived from the test subject is stored in the refrigerator for a certain period of time.
From 5 subjects (adult men and women) per test, approximately 120 μL of blood (amount of 2 collection containers of the kit) was sampled by self-collection using an Micro Blood Collection Kit (Micro Blood Science Co., Ltd.), and was left to stand on ice until sample processing. The subjects were fasted on the morning of the sampling day, and samplings were performed around 9:00 am. The test was performed four times in total, with a total of 19 people performing evaluations, excluding one person due to insufficient sample blood volume.
The sampled blood was collected into 1.5 mL microtubes for each subject and mixed by gentle pipetting. Four types of filter papers (Whatman FTA DMPK-A Card/GE healthcare, QIAcard FTA DMPK-B Card/QIAGEN, QIAcard FTA DMPK-C Card/QIAGEN, Whatman 903 Protein saver card/Cytiva) were each spotted with 5 μL of blood (dropped/added) at multiple areas, sealed in a moisture absorption standard pouch (Moisture absorption-kun (registered trademark)/Maruto Sangyo Co., Ltd.), and stored in the refrigerator. Next, after chilled storing the blood-spotted filter paper for 2 days, 2 weeks (14 days or 15 days), or 1 month (30 days), the blood-spotted areas were cut out and collected in a 2 mL microtube. After adding 300 μL of a mixed aqueous solution of internal standard substances (NAD+-d4 and NMN-d4/Toronto Research Chemicals, Inc.) thereto and stirring using a vortex mixer, the mixture was mixed with a micromixer (TOMY MICRO TUBE MIXER MT-400, stirring speed 5) for 30 minutes at room temperature. The blood extract solution was dispensed by each 150 μL portion into a microtube, 300 μL of acetonitrile was added thereto, and the mixture was stirred using a vortex mixer, followed by centrifugation (24,250×g, 10 minutes, 4° C.). After centrifugation, 40 μL of the supernatant was dispensed into a vial and measured by LC-MS/MS.
In contrast, as a sample for initial values, 5 μL of blood was collected into a 2 mL microtube (no spotted filter paper), and 300 μL of a mixed aqueous solution of internal standard substances (NAD-d4 and NMN-d4/Toronto Research Chemicals, Inc.) was added thereto and stirred using a vortex mixer, and then the mixture was mixed using a micromixer (TOMY MICRO TUBE MIXER MT-400, stirring speed 5) for 30 minutes at room temperature. The blood extract solution was dispensed by each 150 μL portion into a microtube, 300 μL of acetonitrile was added thereto, and the mixture was stirred using a vortex mixer, followed by centrifugation (24,250×g, 10 minutes, 4° C.). After centrifugation, 40 μL of the supernatant was dispensed into a vial and measured by LC-MS/MS.

[3] = human blood on 903 card, room temperature storage for 2 days
[4] = human blood on DMPK-A card, room temperature storage for 2 weeks
[5] = human blood on DMPK-A card, room temperature storage for 2 days
[6] = human blood on DMPK-B card, room temperature storage for 1 week
[7] = human blood on DMPK-B card, room temperature storage for 2 weeks
[8] = human blood on DMPK-B card, room temperature storage for 2 days
[9] = human blood on 903 card, chilled storage for 2 weeks
[10] = human blood on 903 card, chilled storage for 2 days
[11] = human blood on DMPK-A card, chilled storage for 1 month
[12] = human blood on DMPK-A card, chilled storage for 2 weeks
[13] = human blood on DMPK-A card, chilled storage for 2 days
[14] = human blood on DMPK-B card, chilled storage for 1 month
[15] = human blood on DMPK-B card, chilled storage for 2 weeks
[16] = human blood on DMPK-B card, chilled storage for 2 days
[17] = human blood on DMPK-C card, chilled storage for 2 weeks
[18] = human blood on DMPK-C card, chilled storage for 2 days

For `NC(=O)c1ccc[n+]([C@@H]2O[C@H](COP(=O)([O-])O)[C@@H](O)[C@H]2O)c1` [NMN, nicotinamide mononucleotide], the “Storage stability, Evaluation” value [1, 3] was “Good (Good (≥70%))”, the “Storage stability (mean)” value [1, 3] was 79.8% and the “Storage stability, Evaluation” value [1, 4] was “Excellent: (Excellent (≥85%))”. The “Storage stability (mean)” value [1, 4] was 124.2%, the “Storage stability, Evaluation” value [1, 5] was “Excellent: (Excellent (≥85%))” and the “Storage stability (mean)” value [1, 5] was 122.7%. The “Storage stability, Evaluation” value [1, 6] was “Average: (Average (≥50%))”, the “Storage stability (mean)” value [1, 6] was 69.1% and the “Storage stability, Evaluation” value [1, 7] was “Average: (Average (≥50%))”. The “Storage stability (mean)” value [1, 7] was 66.6%, the “Storage stability, Evaluation” value [1, 8] was “Excellent: (Excellent (≥85%))” and the “Storage stability (mean)” value [1, 8] was 96.5%. For the same compound, the “Storage stability (mean)” value ([2]; human blood on 903 card, chilled storage for 1 month) was 56.3%, the “Storage stability, Evaluation” value [2, 9] was “Average: (Average (≥50%))” and the “Storage stability (mean)” value [2, 9] was 64.5%. For the same compound, the “Storage stability, Evaluation” value [2, 10] was “Average: (Average (≥50%))”, the “Storage stability (mean)” value [2, 10] was 60.1% and the “Storage stability, Evaluation” value [2, 11] was “Excellent: (Excellent (≥85%))”. For the same compound, the “Storage stability (mean)” value [2, 11] was 99.9%, the “Storage stability, Evaluation” value [2, 12] was “Good: (Good (≥70%))” and the “Storage stability (mean)” value [2, 12] was 80.6%. The “Storage stability, Evaluation” value [2, 13] was “Good: (Good (≥70%))”, the “Storage stability (mean)” value [2, 13] was 73.1% and the “Storage stability, Evaluation” value [2, 14] was “Good: (Good (≥70%))”. The “Storage stability (mean)” value [2, 14] was 78.6%, the “Storage stability, Evaluation” value [2, 15] was “Excellent: (Excellent (≥85%))” and the “Storage stability (mean)” value [2, 15] was 93.6%. For the same compound, the “Storage stability, Evaluation” value [2, 16] was “Excellent: (Excellent (≥85%))”, the “Storage stability (mean)” value [2, 16] was 95.4% and the “Storage stability, Evaluation” value [2, 17] was “Average: (Average (≥50%))”. For the same compound, the “Storage stability (mean)” value [2, 17] was 52.9%, the “Storage stability, Evaluation” value [2, 18] was “Average: (Average (≥50%))” and the “Storage stability (mean)” value [2, 18] was 68.4%.
